Measured values from patent US20190231785A1, “PHOSPHODIESTERASE INHIBITOR TREATMENT” (Cyrano Therapeutics, Inc., priority 2012, published 2019).
Marks after values point to notes of the source that are not given here.

System: patients with hyposmia
Experiment: Olfactometry (DT, RT, ME, H; forced-choice, three-stimuli, stepwise-staircase, four odors), open trial of oral theophylline
Type: in vivo, human
Description: Patients initially reported their sensory dysfunction as either loss of taste (e.g., flavor) and/or smell function. This subjective response was documented by objective psychophysical measurements of olfactory function administered to each patient by use of a forced-choice, three-stimuli, stepwise-staircase technique in a fixed, controlled design (1, 53). Efficacy of this technique and results of testing were previously documented in a double-blind clinical trial (53). Four odors were used; they were pyridine (dead-fish odor), nitrobenzene (bitter-almond odor), thiophene (petroleum-like odor) and amyl acetate (banana-oil odor). Detection thresholds (DT), recognition thresholds (RT) and magnitude estimation (ME) values for each odor were determined as previously described (1, 53). Thresholds were converted into bottle units (BU) as previously described (53) and results reported as M±SEM of correct responses for each odor in each treatment group; ME was reported in % and results calculated to obtain M±SEM for each treatment group for all correct responses using data for the four highest odor concentrations presented (from 10^−2M—an absolute odor concentration).
In addition, each patient graded the hedonic (H) value of each odor presented for these same odor concentrations (from 10^−2M—an absolute odor concentration using a −100-0-+100 scale). […] Results were obtained by calculating the arithmetical sum of each correct recognition response for each odor with respect to its pleasantness, unpleasantness or neutrality. Arithmetic M±SEM were obtained for each treatment group for each odor presented.
After determination of hyposmia, patients were treated in an open label, fixed design, controlled open trial. Patients were given an oral extended release theophylline in divided daily doses taken in the middle of breakfast and lunch. All patients were initially given 200 mg of theophylline; changes in this dose were made based upon subjective responses to therapy. If at a subsequent return visit, patients reported ≥5% subjective improvement in overall smell function, they continued on this same dose of theophylline and were reevaluated after four to six months of continued treatment. Results from any subsequent return from these improved patients were not included in any subsequent data report. All subsequent comparisons between treated and untreated patients were made only between those patients continuing in the study compared to their own measurements obtained in the untreated state. If patients reported <5% subjective improvement, their theophylline dose was increased by 200 mg daily and they were scheduled for retesting at the study site after two to four months at this new dosage. For patients that reported <5% improvement, this sequence continued until patients reached 800 mg of theophylline, at which time the study was considered completed.
Patients returned for reevaluation after two to four months of treatment. Measurements of blood serum theophylline were measured by a fluorescence polarization assay (Abbott, Chicago, Ill.). At this time, subjective changes in smell function were measured independently (compared to patient's memory of previous normal smell function monitored by use of the patients' daily measurements) using the scale from −100-0-+100 previously described (vs). After independently recording their subjective responses, smell function was measured for all four odors with DT, RT, ME and H determined without recourse to prior measurements.
Since data for all measurements from each patient group (local or distant) on each dose level were combined mean and SEM for each measurement (DT, RT, ME, H) of smell function for each treatment group were calculated on this basis. Differences in measurements between before treatment and each treatment level were calculated and significance of differences estimated using Student t tests (values p<0.05 considered significant). […]

[1] = Type I hyposmia, oral 200 mg, after treatment (57 patients), mean ± SEM
[2] = Type I hyposmia, oral 400 mg, after treatment (33 patients), mean ± SEM
[3] = Type I hyposmia, oral 600 mg, after treatment (51 patients), mean ± SEM
[4] = Type I hyposmia, oral 800 mg, after treatment (12 patients), mean ± SEM
[5] = Type II hyposmia, oral 200 mg, after treatment (138 patients)
[6] = Type II hyposmia, oral 400 mg, after treatment (85 patients)
[7] = Type II hyposmia, oral 600 mg, after treatment (105 patients)

## Cn1c(=O)c2[nH]cnc2n(C)c1=O [theophylline]
[1]
  detection threshold (DT), pyridine: 9.5 ± 0.2 BU
  hedonic value (H), amyl acetate: 4 ± 2^a %
  hedonic value (H), nitrobenzene: 4 ± 2^a %
  hedonic value (H), pyridine: −8 ± 2^a %
  hedonic value (H), thiophene: −3 ± 2^a %
  magnitude estimation (ME), amyl acetate: 6 ± 2^a %
  magnitude estimation (ME), nitrobenzene: 5 ± 2^a %
  magnitude estimation (ME), pyridine: 11 ± 2^a %
  magnitude estimation (ME), thiophene: 6 ± 2^a %
  recognition threshold (RT), pyridine: 11.0 ± 0.2^a BU
[2]
  detection threshold (DT), nitrobenzene: 9.8 ± 0.5^a BU
  detection threshold (DT), pyridine: 8.8 ± 0.5 BU
  detection threshold (DT), thiophene: 9.8 ± 0.5^a BU
  hedonic value (H), amyl acetate: 5 ± 3^a %
  hedonic value (H), nitrobenzene: 3 ± 3^a %
  hedonic value (H), pyridine: −7 ± 3^a %
  hedonic value (H), thiophene: −5 ± 2^a %
  magnitude estimation (ME), amyl acetate: 7 ± 3^a %
  magnitude estimation (ME), nitrobenzene: 8 ± 3^a %
  magnitude estimation (ME), pyridine: 12 ± 3^a %
  magnitude estimation (ME), thiophene: 7 ± 2^a %
  recognition threshold (RT), pyridine: 10.6 ± 0.4 BU
[3]
  detection threshold (DT), nitrobenzene: 9.9 ± 0.4^c BU
  detection threshold (DT), pyridine: 8.9 ± 0.3^b BU
  detection threshold (DT), thiophene: 9.4 ± 0.4^a BU
  hedonic value (H), amyl acetate: −0.4 ± 1%
  hedonic value (H), nitrobenzene: 2 ± 2%
  hedonic value (H), pyridine: −8 ± 2^a %
  hedonic value (H), thiophene: −3 ± 2^a %
  magnitude estimation (ME), amyl acetate: 5 ± 2^a %
  magnitude estimation (ME), nitrobenzene: 6 ± 2^a %
  magnitude estimation (ME), pyridine: 11 ± 3^a %
  magnitude estimation (ME), thiophene: 7 ± 2^a %
[4]
  detection threshold (DT), thiophene: 10.0 ± 0.7 BU
  hedonic value (H), amyl acetate: −1 ± 4%
  hedonic value (H), nitrobenzene: 2 ± 2^a %
  hedonic value (H), pyridine: −11 ± 5^a %
  hedonic value (H), thiophene: −4 ± 2^a %
  magnitude estimation (ME), amyl acetate: 5 ± 3^a %
  magnitude estimation (ME), nitrobenzene: 4 ± 3^a %
  magnitude estimation (ME), pyridine: 10 ± 4^a %
  magnitude estimation (ME), thiophene: 4 ± 2^a %
[5]
  detection threshold (DT), amyl acetate: 7.0 ± 0.3 BU
  detection threshold (DT), nitrobenzene: 6.9 ± 0.3^a BU
  detection threshold (DT), pyridine: 6.9 ± 0.2 BU
  detection threshold (DT), thiophene: 6.5 ± 0.3 BU
  hedonic value (H), amyl acetate: 3 ± 2%
  hedonic value (H), nitrobenzene: 7 ± 2%
  hedonic value (H), pyridine: −28 ± 2%
  hedonic value (H), thiophene: −19 ± 2%
  magnitude estimation (ME), amyl acetate: 19 ± 2%
  magnitude estimation (ME), nitrobenzene: 22 ± 2%
  magnitude estimation (ME), pyridine: 35 ± 2%
  magnitude estimation (ME), thiophene: 27 ± 2%
  recognition threshold (RT), amyl acetate: 9.3 ± 0.2 BU
  recognition threshold (RT), nitrobenzene: 8.8 ± 0.3 BU
  recognition threshold (RT), pyridine: 8.2 ± 0.2^a BU
  recognition threshold (RT), thiophene: 8.2 ± 0.3^a BU
[6]
  detection threshold (DT), amyl acetate: 6.1 ± 0.4^a BU
  detection threshold (DT), nitrobenzene: 6.3 ± 0.4^a BU
  detection threshold (DT), pyridine: 6.3 ± 0.3^a BU
  detection threshold (DT), thiophene: 5.7 ± 0.4 BU
  hedonic value (H), amyl acetate: 0.3 ± 2.8%
  hedonic value (H), nitrobenzene: 11 ± 3%
  hedonic value (H), pyridine: −34 ± 3%
  hedonic value (H), thiophene: −23 ± 3%
  magnitude estimation (ME), amyl acetate: 21 ± 3%
  magnitude estimation (ME), nitrobenzene: 27 ± 3^a %
  magnitude estimation (ME), pyridine: 41 ± 3^a %
  magnitude estimation (ME), thiophene: 31 ± 3%
  recognition threshold (RT), amyl acetate: 8.8 ± 0.4^a BU
  recognition threshold (RT), nitrobenzene: 8.2 ± 0.4^a BU
  recognition threshold (RT), pyridine: 7.7 ± 0.3^a BU
  recognition threshold (RT), thiophene: 7.6 ± 0.4^a BU
[7]
  detection threshold (DT), amyl acetate: 6.8 ± 0.3^a BU
  detection threshold (DT), nitrobenzene: 6.8 ± 0.3^a BU
  detection threshold (DT), pyridine: 6.7 ± 0.3^a BU
  detection threshold (DT), thiophene: 6.1 ± 0.3^a BU
  hedonic value (H), amyl acetate: 7 ± 2%
  hedonic value (H), nitrobenzene: 11 ± 2%
  hedonic value (H), pyridine: −25 ± 3%
  hedonic value (H), thiophene: −20 ± 2%
  magnitude estimation (ME), amyl acetate: 19 ± 2%
  magnitude estimation (ME), nitrobenzene: 24 ± 2%
  magnitude estimation (ME), pyridine: 33 ± 2%
  magnitude estimation (ME), thiophene: 27 ± 2%
  recognition threshold (RT), amyl acetate: 8.9 ± 0.3^a BU
  recognition threshold (RT), nitrobenzene: 8.4 ± 0.3 BU
  recognition threshold (RT), pyridine: 8.9 ± 0.3 BU
